Test results from US9624175B2, “Fused-bicyclic aryl quinolinone derivatives as mutant-isocitrate dehydrogenase inhibitors” (Forma Therapeutics, Inc., priority 2015, dated 2017).

Columns and labels:
[1] = molecular target: IDH1-R132H recombinant protein (Homo sapiens (Human), UniProt O75874, R132H); test: IDH1-R132H enzymatic assay (NADPH consumption, diaphorase/resazurin readout); type: biochemical; details: inhibition of NADPH consumption, 30 nM IDH1-R132H; read-out: Enzyme IDH1 R132H IC50
Experimental: (§1) Assays were performed in a 384-well black plate. An aliquot of 250 nL of compound was incubated with 10 μL of 30 nM IDH1-R132H or 10 nM IDH1-R132C recombinant protein in assay buffer (50 mM Tris pH=7.5, 150 mM NaCl, 5 mM MgCl2, 0.1% (w/v) Bovine Serum Albumin, and 0.01% Triton X-100) in each well at 25° C. for 15 minutes. After the plate was centrifuged briefly, an aliquot of 10 μL of 2 mM α-ketoglutarate and 20 μM NADPH solution prepared in assay buffer was then added to each well and the reaction was maintained at 25° C. for 45 minutes. An aliquot of 10 μL of diaphorase solution (0.15 U/mL diaphorase and 30 μM Resazurin in assay buffer) was added to each well. The plate was maintained at 25° C. for 15 minutes and then read on a plate reader with excitation and emission wavelengths at 535 nm and 590 nm, respectively. The IC50 of a given compound was calculated by fitting the dose response curve of inhibition of NADPH consumption at a given concentration with the four parameter logistic equation.

[2] = molecular target: IDH1-R132C recombinant protein (Homo sapiens (Human), UniProt O75874, R132C); test: IDH1-R132C enzymatic assay (NADPH consumption, diaphorase/resazurin readout); type: biochemical; details: inhibition of NADPH consumption, 10 nM IDH1-R132C; read-out: Enzyme IDH1 R132C IC50
Experimental: as §1

Sequence of IDH1-R132H recombinant protein (O75874 whole entry R132H): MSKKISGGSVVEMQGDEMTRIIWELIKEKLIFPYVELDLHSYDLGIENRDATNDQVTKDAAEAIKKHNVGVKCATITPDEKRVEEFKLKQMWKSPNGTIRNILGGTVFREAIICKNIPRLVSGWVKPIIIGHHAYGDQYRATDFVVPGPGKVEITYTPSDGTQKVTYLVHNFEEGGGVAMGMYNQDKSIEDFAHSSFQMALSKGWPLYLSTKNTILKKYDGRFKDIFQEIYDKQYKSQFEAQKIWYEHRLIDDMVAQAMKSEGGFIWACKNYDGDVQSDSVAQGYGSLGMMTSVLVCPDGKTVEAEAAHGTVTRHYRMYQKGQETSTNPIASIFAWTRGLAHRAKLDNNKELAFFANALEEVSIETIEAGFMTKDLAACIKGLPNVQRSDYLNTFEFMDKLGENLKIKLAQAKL
Sequence of IDH1-R132C recombinant protein (O75874 whole entry R132C): as the sequence (O75874 whole entry R132H) above, with H132C counted along it

Row | Structure (SMILES) | IC50 [1] | IC50 [2]
1 | C[C@H](Nc1ncc2c(n1)NC(=O)CC2)c1cc2cc(Cl)ccc2[nH]c1=O [Compound I-62, 6-chloro-3-[(1S)-1-({7-oxo-5H,6H,7H,8H-pyrido[2,3-d]pyrimidin-2-yl}amino)ethyl]-1,2-dihydroquinolin-2-one] | 1000 to 10000 nM | 1000 to 10000 nM
2 | C[C@H](Nc1ncc2c(n1)N(C)C(=O)OC2)c1cc2cc(Cl)ccc2[nH]c1=O [Compound I-47, 6-chloro-3-[(1S)-1-({1-methyl-2-oxo-1H,2H,4H-pyrimido[4,5-d][1,3]oxazin-7-yl}amino)ethyl]-1,2-dihydroquinolin-2-one] | < 100 nM | < 100 nM
3 | C[C@H](Nc1ncc2c(n1)N(C)C(=O)C2)c1cc2cc(Cl)ccc2[nH]c1=O [Compound I-61, 6-chloro-3-[(1S)-1-({7-methyl-6-oxo-5H,6H,7H-pyrrolo[2,3-d]pyrimidin-2-yl}amino)ethyl]-1,2-dihydroquinolin-2-one] | 100 to 1000 nM | 100 to 1000 nM
4 | C[C@H](Nc1ncc2c(n1)NC(=O)OC2)c1cc2cc(Cl)ccc2[nH]c1=O [Compound I-49, 6-chloro-3-[(1S)-1-({2-oxo-1H,2H,4H-pyrimido[4,5-d][1,3]oxazin-7-yl}amino)ethyl]-1,2-dihydroquinolin-2-one] | < 100 nM | 100 to 1000 nM
5 | C[C@H](Nc1ncc2c(n1)N(C)C(=O)OC2)c1cc2cc(Cl)c(OCc3ccccn3)cc2[nH]c1=O [Compound I-48, 6-chloro-3-[(1S)-1-({1-methyl-2-oxo-1H,2H,4H-pyrimido[4,5-d][1,3]oxazin-7-yl}amino)ethyl]-7-(pyridin-2-ylmethoxy)-1,2-dihydroquinolin-2-one] | < 100 nM | < 100 nM
6 | C[C@H](Nc1ncc2cn[nH]c2n1)c1cc2cc(Cl)ccc2[nH]c1=O [Compound I-45, 6-chloro-3-[(1S)-1-({1H-pyrazolo[3,4-d]pyrimidin-6-yl}amino)ethyl]-1,2-dihydroquinolin-2-one] | 100 to 1000 nM | 1000 to 10000 nM
7 | C[C@H](Nc1ncc2oc(=O)[nH]c2n1)c1cc2cc(Cl)ccc2[nH]c1=O [Compound I-56, 6-chloro-3-[(1S)-1-({2-oxo-2H,3H-[1,3]oxazolo[4,5-d]pyrimidin-5-yl}amino)ethyl]-1,2-dihydroquinolin-2-one] | < 100 nM | 100 to 1000 nM
8 | CC(=O)N1CCOc2c1ccnc2N[C@@H](C)c1cc2cc(Cl)ccc2[nH]c1=O [Compound I-44, 3-[(1S)-1-({1-acetyl-1H,2H,3H-pyrido[3,4-b][1,4]oxazin-5-yl}amino)ethyl]-6-chloro-1,2-dihydroquinolin-2-one] | 1000 to 10000 nM | > 10000 nM
9 | O=C1CCc2cc(NCc3cc4cc(Cl)ccc4[nH]c3=O)ccc2N1 [Compound I-20, 6-chloro-3-{[(2-oxo-1,2,3,4-tetrahydroquinolin-6-yl)amino]methyl}-1,2-dihydroquinolin-2-one] | 1000 to 10000 nM | 
10 | O=C1CCc2ccc(NCc3cc4cc(Cl)ccc4[nH]c3=O)cc2N1 [Compound I-18, 6-chloro-3-{[(2-oxo-1,2,3,4-tetrahydroquinolin-7-yl)amino]methyl}-1,2-dihydroquinolin-2-one] | > 10000 nM | 
11 | CN1C(=O)COc2cc(NCc3cc4cc(Cl)ccc4[nH]c3=O)ccc21 [Compound I-10, 7-{[(6-chloro-2-oxo-1,2-dihydroquinolin-3-yl)methyl]amino}-4-methyl-3,4-dihydro-2H-1,4-benzoxazin-3-one] | 1000 to 10000 nM | 
12 | C[C@@H](Nc1ncc2c(n1)N(C)C(=O)OC2)c1cc2cc(Cl)c(F)cc2[nH]c1=O [Compound I-53, 6-chloro-7-fluoro-3-[(1R)-1-({1-methyl-2-oxo-1H,2H,4H-pyrimido[4,5-d][1,3]oxazin-7-yl}amino)ethyl]-1,2-dihydroquinolin-2-one] | 1000 to 10000 nM | > 10000 nM
13 | COc1cc2[nH]c(=O)c([C@@H](C)Nc3ncc4c(n3)N(C)C(=O)OC4)cc2cc1Cl [Compound I-52, 6-chloro-7-methoxy-3-[(1R)-1-({1-methyl-2-oxo-1H,2H,4H-pyrimido[4,5-d][1,3]oxazin-7-yl}amino)ethyl]-1,2-dihydroquinolin-2-one] | 100 to 1000 nM | 1000 to 10000 nM
14 | CN1C(=O)CCc2cc(NCc3cc4cc(Cl)ccc4[nH]c3=O)ccc21 [Compound I-5, 6-chloro-3-{[(1-methyl-2-oxo-1,2,3,4-tetrahydroquinolin-6-yl)amino]methyl}-1,2-dihydroquinolin-2-one] | 100 to 1000 nM | 
15 | COc1cc2c(cc1NCc1cc3cc(Cl)ccc3[nH]c1=O)NC(=O)CC2 [Compound I-17, 6-chloro-3-{[(6-methoxy-2-oxo-1,2,3,4-tetrahydroquinolin-7-yl)amino]methyl}-1,2-dihydroquinolin-2-one] | > 10000 nM | 
16 | Cn1c(=O)oc2cc(NCc3cc4cc(Cl)ccc4[nH]c3=O)ccc21 [Compound I-14, 6-chloro-3-{[(3-methyl-2-oxo-2,3-dihydro-1,3-benzoxazol-6-yl)amino]methyl}-1,2-dihydroquinolin-2-one] | > 10000 nM | 
17 | Cc1cc2cc(CNc3ccc4ncsc4c3)c(=O)[nH]c2cc1C [Compound I-40, 3-{[(1,3-benzothiazol-6-yl)amino]methyl}-6,7-dimethyl-1,2-dihydroquinolin-2-one] | > 10000 nM | 
18 | N#Cc1ccc(NCc2cc3cc(Cl)ccc3[nH]c2=O)c2ccccc12 [Compound I-7, 4-{[(6-chloro-2-oxo-1,2-dihydroquinolin-3-yl)methyl]amino}naphthalene-1-carbonitrile] | 1000 to 10000 nM | 
19 | COc1cc2cc(CNc3ccc4[nH]c(-c5ccc6[nH]cnc6c5)nc4c3)c(=O)[nH]c2cc1OC [Compound I-12, 3-({[2-(1H-1,3-benzodiazol-5-yl)-1H-1,3-benzodiazol-5-yl]amino}methyl)-6,7-dimethoxy-1,2-dihydroquinolin-2-one] | > 10000 nM | 
20 | COc1ccc2[nH]c(=O)c(CNc3ccc4nc(C)ccc4c3)cc2c1 [Compound I-35, 6-methoxy-3-{[(2-methylquinolin-6-yl)amino]methyl}-1,2-dihydroquinolin-2-one] | > 10000 nM | 
21 | O=C1COc2cc(NCc3cc4cc(Cl)ccc4[nH]c3=O)ccc2N1 [Compound I-11, 7-{[(6-chloro-2-oxo-1,2-dihydroquinolin-3-yl)methyl]amino}-3,4-dihydro-2H-1,4-benzoxazin-3-one] | 1000 to 10000 nM | 
22 | O=c1[nH]c2ccc(Cl)cc2cc1CNc1cccc2c1OCCC2 [Compound I-16, 6-chloro-3-{[(3,4-dihydro-2H-1-benzopyran-8-yl)amino]methyl}-1,2-dihydroquinolin-2-one] | > 10000 nM | 
23 | COc1ccc2[nH]c(=O)c(CNc3ccc4c(c3)OCCO4)cc2c1 [Compound I-30, 3-{[(2,3-dihydro-1,4-benzodioxin-6-yl)amino]methyl}-6-methoxy-1,2-dihydroquinolin-2-one] | > 10000 nM | 
24 | O=c1[nH]c2ccc(Cl)cc2cc1CNc1ccc2[nH]c(C(F)(F)F)nc2c1 [Compound I-28, 6-chloro-3-({[2-(trifluoromethyl)-1H-1,3-benzodiazol-5-yl]amino}methyl)-1,2-dihydroquinolin-2-one] | > 10000 nM | 

Results, then the compound that gave them:

Row | IC50 [1] | IC50 [2] | Structure (SMILES)
25 | 100 to 1000 nM | 100 to 1000 nM | O=c1[nH]c2ccc(Cl)cc2cc1CNc1cccc2ocnc12 [Compound I-1, 3-{[(1,3-benzoxazol-4-yl)amino]methyl}-6-chloro-1,2-dihydroquinolin-2-one]
26 | > 10000 nM |  | O=c1[nH]c2ccc(Cl)cc2cc1CNc1cccc2ccncc12 [Compound I-15, 6-chloro-3-{[(isoquinolin-8-yl)amino]methyl}-1,2-dihydroquinolin-2-one]
27 | > 10000 nM |  | O=c1[nH]c2ccc(Cl)cc2cc1CNc1ccc2ncccc2c1 [Compound I-27, 6-chloro-3-{[(quinolin-6-yl)amino]methyl}-1,2-dihydroquinolin-2-one]
28 | > 10000 nM |  | O=c1[nH]c2ccc(Cl)cc2cc1CNc1ccc2[nH]ncc2c1 [Compound I-38, 6-chloro-3-{[(1H-indazol-5-yl)amino]methyl}-1,2-dihydroquinolin-2-one]
29 | > 10000 nM |  | Cc1n[nH]c2cc(NCc3cc4cc(Cl)ccc4[nH]c3=O)ccc12 [Compound I-19, 6-chloro-3-{[(3-methyl-1H-indazol-6-yl)amino]methyl}-1,2-dihydroquinolin-2-one]
30 | > 10000 nM |  | O=c1[nH]c2ccc(Cl)cc2cc1CNc1ccc2[nH]cnc2c1 [Compound I-24, 3-{[(1H-1,3-benzodiazol-5-yl)amino]methyl}-6-chloro-1,2-dihydroquinolin-2-one]
31 | 1000 to 10000 nM |  | O=c1[nH]c2ccc(Cl)cc2cc1CNc1cc2ccccc2cn1 [Compound I-6, 6-chloro-3-{[(isoquinolin-3-yl)amino]methyl}-1,2-dihydroquinolin-2-one]
32 | 100 to 1000 nM |  | O=c1[nH]c2cc(NCc3cc4cc(Cl)ccc4[nH]c3=O)ccc2o1 [Compound I-3, 6-chloro-3-{[(2-oxo-2,3-dihydro-1,3-benzoxazol-5-yl)amino]methyl}-1,2-dihydroquinolin-2-one]
33 | > 10000 nM |  | O=c1[nH]c2ccc(Cl)cc2cc1CNc1ccc2nncn2n1 [Compound I-23, 6-chloro-3-[({[1,2,4]triazolo[4,3-b]pyridazin-6-yl}amino)methyl]-1,2-dihydroquinolin-2-one]
34 | > 10000 nM |  | O=c1[nH]c2ccc(Cl)cc2cc1CNc1ccc2ncsc2c1 [Compound I-26, 3-{[(1,3-benzothiazol-6-yl)amino]methyl}-6-chloro-1,2-dihydroquinolin-2-one]
